Reference: patent US20080045537A1, “Chemical Compounds” (priority 2004, published 2008)
Where two headings read alike, the source gives them in different places.

Legend:
Format in all cases: cell-based
[1] = system: HIV-1 gp160 (from the HXB2 HIV strain); experiment: Cell/cell fusion assay (HEK-293 expressing HIV-1 tat, rev, gp160 with HOS hCXCR4/hCCR5/hCD4/pHIV-LTR-luciferase cells); settings: Human immunodeficiency virus 1, HXB2, HEK293, 24 h, read-out: Fusion assay (pIC50), luciferase readout after 24 h (converted)
Source text: The complete coding sequences of HIV-1 tat (GenBank Accession No. X07861) and rev (GenBank Accession No. M34378) were cloned into pcDNA3.1 expression vectors containing G418 and hygromycin resistance genes, respectively. The complete coding sequence of the HIV-1 (HXB2 strain) gp160 envelope gene (nucleotide bases 6225-8795 of GenBank Accession No. K03455) was cloned into plasmid pCRII-TOPO. The three HIV genes were additionally inserted into the baculovirus shuttle vector, pFastBacMam1, under the transcriptional control of the CMV promoter. A construction of the pHIV-I LTR containing mutated NFkB sequences linked to the luciferase reporter gene was prepared by digesting pcDNA3.1, containing the G418 resistance gene, with Nru I and Bam HI to remove the CMV promoter. LTR-luc was then cloned into the Nru I/Bam HI sites of the plasmid vector. Plasmid preparations were performed after the plasmids were amplified in Escherichia coli strain DH5-alpha. The fidelity of the inserted sequences was confirmed by double-strand nucleotide sequencing using an ABI Prism Model 377 automated sequencer.
Recombinant BacMam baculoviruses were constructed from pFastBacMam shuttle plasmids by using the bacterial cell-based Bac-to-Bac system. Viruses were propagated in Sf9 (Spodoptera frugiperda) cells cultured in Hink's TNM-FH Insect media supplemented with 10% (v/v) fetal bovine serum and 0.1% (v/v) pluronic F-68 according to established protocols.
Human osteosarcoma (HOS) cells that naturally express human CXCR4 were transfected with human CCR5, human CD4 and the pHIV-LTR-luciferase plasmid using FuGENE 6 transfection reagent. Single cells were isolated and grown under selection condition in order to generate a stable HOS (hCXCR4/hCCR5/hCD4/pHIV-LTR-luciferase) clonal cell line. The cells were maintained in Dulbeccos modified Eagles media supplemented with 10% fetal calf serum (FCS), G418 (400 ug/ml), puromycin (1 ug/ml), mycophenolic acid (40 ug/ml), xanthine (250 ug/ml) and hypoxanthine (13.5 ug/ml) to maintain a selection pressure for cells expressing the LTR-luciferase, hCCR5 and hCD4, respectively. Human embryonic kidney (HEK-293) cells stably transfected to express the human macrophage scavenging receptor (Class A, type 1; GenBank Accession No. D90187), were maintained in DMEM/F-12 media (1:1) supplemented with 10% FCS and 1.5 ug/ml puromycin. The expression of this receptor by the HEK-293 cells enhances their ability to stick to tissue culture treated plasticware.
HEK-293 cells were harvested using enzyme-free cell dissociation buffer. The cells were resuspended in DMEM/F-12 media supplemented with 10% FCS and 1.5 ug/ml and counted. Tranductions were performed by direct addition of BacMam baculovirus containing insect cell media to cells. The cells were simultaneously transduced with BacMam baculovirus expressing HIV-1 tat, HIV-1 rev and HIV-1 gp160 (from the HXB2 HIV strain). Routinely an MOI of 10 of each virus was added to the media containing the cells. 2 mM butyric acid was also added to the cells at this stage to increase protein expression in transduced cells. The cells were subsequently mixed and seeded into a flask at 30 million cells per T225. The cells were incubated at 37° C., 5% CO2, 95% humidity for 24 h to allow for protein expression.
HEK and HOS cells were harvested in DMEM/F-12 media containing 2% FCS and DMEM media containing 2% FCS, respectively, with no selection agents added. Compounds were plated as 1 ul spots in 100% DMSO on a 96-well CulturPlate plates. HOS cells (50 ul) were added first to the wells, followed immediately by the HEK cells (50 ul). The final concentration of each cell type was 20,000 cells per well. Following these additions, the cells were returned to a tissue culture incubator (37° C.; 5% CO2/95% air) for an additional 24 h.
Following the 24 h incubation, total cellular luciferase activity was measured using the LucLite Plus assay kit (Packard, Meridien, Conn.). […]

human CXCR4 = target: T1, human CXCR4 (Homo sapiens, UniProt P61073); experiment: Functional FLIPR assay (block of SDF-1 alpha induced [Ca2+]i change); settings: HEK-293 cells with human CXCR4 BacMam and Gqi5 BacMam; antagonism of SDF-1 alpha; read-out: Functional assay (pIC50) (converted)
T1 construct: expressed in transfected cells; host or cells: HEK-293 cells (stably expressing human macrophage scavenging receptor) transduced with human CXCR4 BacMam and Gqi5 BacMam baculoviruses
T1 sequence (P61073 whole entry): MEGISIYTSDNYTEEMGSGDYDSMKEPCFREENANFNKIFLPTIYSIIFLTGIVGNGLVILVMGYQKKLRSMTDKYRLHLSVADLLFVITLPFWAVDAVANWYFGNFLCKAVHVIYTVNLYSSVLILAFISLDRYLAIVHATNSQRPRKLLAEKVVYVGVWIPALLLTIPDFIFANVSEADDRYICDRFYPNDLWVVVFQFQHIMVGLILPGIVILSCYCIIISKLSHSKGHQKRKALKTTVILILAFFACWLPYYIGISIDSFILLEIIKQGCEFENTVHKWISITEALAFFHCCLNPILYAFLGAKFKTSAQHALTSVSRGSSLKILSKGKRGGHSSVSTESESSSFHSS
Description: Human embryonic kidney (HEK-293) cells were maintained and harvested as described above. Cells were plated in 96-well, black clear bottom, poly-lysine coated plates at a concentration of 40,000 cells per well in a final volume of 100 ul containing human CXCR4BacMam (MOI=25) and Gqi5 BacMam (MOI=12.5). The cells were incubated at 37° C., 5% CO2, 95% humidity for 24 h to allow for protein expression.
After the required incubation time the cells were washed once with 50 ul of fresh serum-free DMEM/F12 media containing probenicid. 50 ul of dye solution was then added to the cells (Calcium Plus Assay Kit Dye; Molecular Devices) was dissolved in 200 ml of the above probenicid/BSA containing media and incubated for 1 h. Cell plates were transferred to a Fluorometric Imaging Plate Reader (FLIPR). Upon addition the effect of the compounds on the change in [Ca^2+]i was examined to determine if the compounds were agonists or antagonists (ability to block SDF-1 alpha activity) at the CXCR4 receptor. IC50 values are determined and pKb values are calculated using the Leff and Dougall equation: KB=IC50/((2+([agonist]/EC50ˆb)ˆ1/b−1) Where IC50 is that defined by the antagonist concentration-response curve [agonist] is the EC80 concentration of agonist used EC50 is that defined by the agonist concentration-response curve b is the slope of the agonist concentration-response curve.

[2] = Compound cytotoxicity in the absence of virus addition (CellTiter-Glo); settings: human; non-infected HOS cultures; read-out: Cytotox (pIC50) (converted)
Description: Compounds were profiled against two HIV-1 viruses, the M-tropic (CCR5 utilizing) Ba-L strain and the T-tropic (CXCR4 utilizing) IIIB strain. Both viruses were propagated in human peripheral blood lymphocytes. Compounds were tested for there ability to block infection of the HOS cell line (expressing hCXCR4/hCCR5/hCD4/pHIV-LTR-luciferase) by either HIV-1 Ba-L or HIV-1 IIIB. Compound cytotoxicity was also examined in the absence of virus addition.
HOS cells (expressing hCXCR4/hCCR5/hCD4/pHIV-LTR-luciferase) were harvested and diluted in Dulbeccos modified Eagles media supplemented with 2% FCS and non-essential amino acid to a concentration of 60,000 cells/ml. The cells were plated into 96-well plates (100 ul per well) and the plates were placed in a tissue culture incubator (37° C.; 5% CO2/95% air) for a period of 24 h.
Subsequently, 50 ul of the desired drug solution (4 times the final concentration) was added to each well and the plates were returned to the tissue culture incubator (37° C.; 5% CO2/95% air) for 1 h. Following this incubation 50 ul of diluted virus was added to each well (approximately 2 million RLU per well of virus). The plates were returned to the tissue culture incubator (37° C.; 5% CO2/95% air) and were incubated for a further 96 h.
Following this incubation the endpoint for the virally infected cultures was quantified following addition of Steady-Glo Luciferase assay system reagent (Promega, Madison, Wis.). Cell viability or non-infected cultures was measured using a CellTiter-Glo luminescent cell viability assay system (Promega, Madison, Wis.). All luminescent readouts are performed on a Topcount luminescence detector (Packard, Meridien, Conn.).

[3] = system: HIV-1 IIIB (T-tropic, CXCR4 utilizing); experiment: HOS HIV-1 infectivity assay
How it was run: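 Cells were plated and left 24 h, after which compound was added for 1 h. Virus at about 2 million RLU per well followed, with 96 h further incubation at 37 °C, 5% CO2. Luciferase activity was then measured with Steady-Glo, and uninfected-culture viability with CellTiter-Glo.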

[4] = Human immunodeficiency virus 1, IIIB, as determined by the infectivity assay, strain not stated in Table 2, read-out: Activity Level
[5] = Human immunodeficiency virus 1, HIV-1 IIIB, HOS cells, 96 h, luciferase readout, read-out: HOS (3B)

Row | SMILES | IC50 [1] | IC50 (human CXCR4) | IC50 at 96 h [2] | IC50 [3, 4] | IC50 [3, 5]
1 | CN(Cc1nc2cccc(C(=O)NCCc3c[nH]cn3)c2n1C)C1CCCc2cccnc21 (centres unmarked) [Example 7, N-[2-(1H-Imidazol-4-yl)ethyl]-1-methyl-2-{[methyl(5,6,7,8-tetrahydro-8-quinolinyl)amino]methyl}-1H-benzimidazole-7-carboxamide] | 55 nM | 8.51 nM | > 100000 nM | < 100 nM | 8 nM
2 | CN(Cc1nc2cccc(C(=O)N3CCNCC3)c2n1C)C1CCCc2cccnc21 (centres unmarked) [Example 8, N-Methyl-N-{[1-methyl-7-(1-piperazinylcarbonyl)-1H-benzimidazol-2-yl]methyl}-5,6,7,8-tetrahydro-8-quinolinamine] | 53.7 nM | 33.9 nM | > 100000 nM | < 100 nM | 43 nM
3 | CN(Cc1nc2c(C(=O)NCCc3c[nH]cn3)cccc2n1C)C1CCCc2cccnc21 (centres unmarked) [Example 9, N-[2-(1H-Imidazol-4-yl)ethyl]-1-methyl-2-{[methyl(5,6,7,8-tetrahydro-8-quinolinyl)amino]methyl}-1H-benzimidazole-4-carboxamide] | 75.9 nM | 91.2 nM | > 100000 nM | < 100 nM | 56 nM
4 | CN(Cc1nc2c(C(=O)N3CCNCC3)cccc2n1C)C1CCCc2cccnc21 (centres unmarked) [Example 10, N-Methyl-N-{[1-methyl-4-(1-piperazinylcarbonyl)-1H-benzimidazol-2-yl]methyl}-5,6,7,8-tetrahydro-8-quinolinamine] | 1910 nM | 1410 nM | > 100000 nM | 500 to 10000 nM | 840 nM
5 | CN(Cc1nc2cccc(C(=O)NCCCCN)c2[nH]1)C1CCCc2cccnc21 (centres unmarked) [Example 11, N-(4-Aminobutyl)-2-{[methyl(5,6,7,8-tetrahydro-8-quinolinyl)amino]methyl}-1H-benzimidazole-4-carboxamide] | 741 nM | 257 nM | > 100000 nM | 100 to 500 nM | 395 nM
6 | CCN(Cc1nc2cc(C(=O)NCCc3cnc[nH]3)ccc2[nH]1)C1CCCc2cccnc21 (centres unmarked) [Example 12, 2-{[Ethyl(5,6,7,8-tetrahydro-8-quinolinyl)amino]methyl}-N-[2-(1H-imidazol-4-yl)ethyl]-1H-benzimidazole-5-carboxamide] | 1170 nM | 447 nM | > 100000 nM | 100 to 500 nM | 179 nM
7 | CCN(Cc1nc2cc(C(=O)NCCCN)ccc2[nH]1)C1CCCc2cccnc21 (centres unmarked) [Example 13, N-(3-Aminopropyl)-2-{[ethyl(5,6,7,8-tetrahydro-8-quinolinyl)amino]methyl}-1H-benzimidazole-5-carboxamide] | 1740 nM | 417 nM | > 100000 nM | 500 to 10000 nM | 594 nM
8 | CCN(Cc1nc2cc(C(=O)NCCN)ccc2[nH]1)C1CCCc2cccnc21 (centres unmarked) [Example 14, N-(2-Aminoethyl)-2-{[ethyl(5,6,7,8-tetrahydro-8-quinolinyl)amino]methyl}-1H-benzimidazole-5-carboxamide] | 2570 nM | 339 nM | > 100000 nM | 100 to 500 nM | 440 nM
9 | CCN(Cc1nc2cccc(C(=O)NCCCN)c2[nH]1)C1CCCc2cccnc21 (centres unmarked) [Example 15, N-(3-Aminopropyl)-2-{[ethyl(5,6,7,8-tetrahydro-8-quinolinyl)amino]methyl}-1H-benzimidazole-4-carboxamide] | 355 nM | 120 nM | > 100000 nM | 100 to 500 nM | 141 nM
10 | CCN(Cc1nc2cccc(C(=O)NCCCCN)c2[nH]1)C1CCCc2cccnc21 (centres unmarked) [Example 16, N-(4-Aminobutyl)-2-{[ethyl(5,6,7,8-tetrahydro-8-quinolinyl)amino]methyl}-1H-benzimidazole-4-carboxamide] | 724 nM | 288 nM | > 100000 nM | 100 to 500 nM | 238 nM
11 | CC(C)CN1CCN(c2cccc3[nH]c(CN(C)C4CCCc5cccnc54)nc23)CC1 (centres unmarked) [Example 36, N-methyl-N-({4-[4-(2-methylpropyl)-1-piperazinyl]-1H-benzimidazol-2-yl}methyl)-5,6,7,8-tetrahydro-8-quinolinamine] |  |  | > 100000 nM | < 100 nM | 50 nM
